Measurements as given in patent publication US10717716B2, “1,3,4-oxadiazole derivative compounds as histone deacetylase 6 inhibitor, and the pharmaceutical composition comprising the same” (Chong Kun Dang Pharmaceutical Corp., priority 2015, dated 2020).
pIC50: −log10 of the molar value.

Biological target: T1, human recombinant HDAC6 (Homo sapiens, UniProt Q9UBN7)
T1 construct: purchased Calbiochem 382180
T1 sequence (Q9UBN7 1-1215): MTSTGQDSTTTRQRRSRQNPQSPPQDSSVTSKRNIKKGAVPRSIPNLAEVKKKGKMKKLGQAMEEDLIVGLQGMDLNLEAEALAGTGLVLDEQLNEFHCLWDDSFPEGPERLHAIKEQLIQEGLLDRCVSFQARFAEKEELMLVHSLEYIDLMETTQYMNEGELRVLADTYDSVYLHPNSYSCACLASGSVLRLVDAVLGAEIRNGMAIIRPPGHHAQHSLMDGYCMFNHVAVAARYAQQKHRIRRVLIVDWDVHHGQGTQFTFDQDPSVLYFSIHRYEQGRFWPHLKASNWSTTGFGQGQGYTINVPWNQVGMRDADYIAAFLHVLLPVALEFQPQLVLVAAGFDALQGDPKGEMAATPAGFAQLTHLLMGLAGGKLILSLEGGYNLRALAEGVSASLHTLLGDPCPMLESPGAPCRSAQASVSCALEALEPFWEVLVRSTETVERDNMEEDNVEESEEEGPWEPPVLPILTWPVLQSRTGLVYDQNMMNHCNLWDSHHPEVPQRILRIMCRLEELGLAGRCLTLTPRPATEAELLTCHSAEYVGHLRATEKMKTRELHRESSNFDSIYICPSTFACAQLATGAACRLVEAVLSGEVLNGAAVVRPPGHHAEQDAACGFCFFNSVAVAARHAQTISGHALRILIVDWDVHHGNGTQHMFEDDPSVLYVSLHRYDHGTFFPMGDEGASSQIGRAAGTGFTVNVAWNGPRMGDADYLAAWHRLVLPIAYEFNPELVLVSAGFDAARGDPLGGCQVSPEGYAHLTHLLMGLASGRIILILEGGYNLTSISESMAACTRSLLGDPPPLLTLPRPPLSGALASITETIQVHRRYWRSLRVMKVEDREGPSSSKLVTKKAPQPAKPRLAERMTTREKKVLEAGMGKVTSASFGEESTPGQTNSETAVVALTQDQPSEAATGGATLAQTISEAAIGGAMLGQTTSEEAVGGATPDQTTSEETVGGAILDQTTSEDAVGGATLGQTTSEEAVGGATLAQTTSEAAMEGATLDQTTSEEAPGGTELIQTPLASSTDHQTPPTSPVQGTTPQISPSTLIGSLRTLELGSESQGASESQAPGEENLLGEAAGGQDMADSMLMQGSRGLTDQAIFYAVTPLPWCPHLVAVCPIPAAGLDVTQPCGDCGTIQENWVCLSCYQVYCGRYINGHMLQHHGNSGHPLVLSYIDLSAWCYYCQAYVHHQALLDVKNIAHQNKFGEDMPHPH
Assay: HDAC6 enzyme activity inhibition assay (HDAC Fluorimetric Drug Discovery Kit)
Format: biochemical
Conditions: for HDAC6 selectivity (fold): HDAC6 over HDAC1; for pIC50: human recombinant HDAC6, same protocol as HDAC1, read-out: HDAC6
Description: In order to examine the HDAC6 selectivity of the compounds of formula I of the present invention by HDAC1 and HDAC6 enzymatic activity inhibition assays, an experiment was performed using a conventional substance as a control.
HDAC enzyme activity was measured using a HDAC Fluorimetric Drug Discovery Kit (BML-AK511, 516, Enzo Life Science). For the HDAC1 enzyme activity test, human recombinant HDAC1 (BML-SE456) was used as an enzyme source, and Fluor de Lys®-“SIRT1 (BNL-KI177) was used as a substrate. A 5-fold dilution of the compound was seeded into a 96-well plate, and then 0.3 μg of the enzyme and 10 μM of the substrate were added to each well of the plate and allowed to react at 30° C. for 60 minutes. Then, Fluor de Lys®-Developer II (BML-KI176) was added thereto and allowed to react for 30 minutes, after which the fluorescence value (Ex 360, Em 460) was measured using a multi-plate reader (Flexstation 3, Molecular Device). The HDAC6 enzyme was tested using human recombinant HDAC6 (382180) (Calbiochem) according to the same protocol as the HDAC1 enzyme activity test method. Based on the resulting values, each IC5, value was calculated using GraphPad Prism4.0 program.

SMILES | HDAC6 selectivity (fold) | pIC50
O=C(N1CCOCC1)N(Cc1ccc(Cc2nnc(C(F)(F)F)o2)cc1)c1ccccc1 [Compound 21355, N-phenyl-N-(4-((5-(trifluoromethyl)-1,3,4-oxadiazol-2-yl)methyl)benzyl)morpholine-4-carboxamide] | 1 | 5.16
O=C(NCC1CCOCC1)N(Cc1ccc(-c2nnc(C(F)(F)F)o2)cc1)c1ccccc1 [Compound 21357, 1-Phenyl-3-((tetrahydro-2H-pyran-4-yl)methyl)-1-(4-(5-(trifluoromethyl)-1,3,4-oxadiazol-2-yl)benzyl)urea] | 21 | 6.33
O=C(N1CCN(c2ccccc2)CC1)N(Cc1ccc(-c2nnc(C(F)(F)F)o2)cc1)c1ccccc1 [Compound 21358, N,4-diphenyl-N-(4-(5-(trifluoromethyl)-1,3,4-oxadiazol-2-yl)benzyl)piperazine-1-carboxamide] | 10 | 5.98
O=C(N1CC=C(c2ccccc2)CC1)N(Cc1ccc(-c2nnc(C(F)(F)F)o2)cc1)c1ccccc1 [Compound 21359, N,4-diphenyl-N-(4-(5-(trifluoromethyl)-1,3,4-oxadiazol-2-yl)benzyl)-3,6-dihydropyridine-1(2H)-carboxamide] | 4 | 5.64
O=C(N1CCS(=O)(=O)CC1)N(Cc1ccc(-c2nnc(C(F)F)o2)cc1)c1ccccc1 [Compound 21360, N-(4-(5-(difluoromethyl)-1,3,4-oxadiazol-2-yl)benzyl)-N-phenylthiomorpholine-4-carboxamide 1,1-dioxide] | 282 | 7.45
O=C(N1CCS(=O)(=O)CC1)N(Cc1ccc(-c2nnc(C(F)(F)F)o2)cc1)c1ccccc1 [Compound 21361, N-phenyl-N-(4-(5-(trifluoromethyl)-1,3,4-oxadiazol-2-yl)benzyl)thiomorpholine-4-carboxamide 1,1-dioxide] | 147 | 7.17
O=C(N1CCNCC1)N(Cc1ccc(-c2nnc(C(F)(F)F)o2)cc1)c1ccccc1 [Compound 21362, N-phenyl-N-(4-(5-(trifluoromethyl)-1,3,4-oxadiazol-2-yl)benzyl)piperazine-1-carboxamide] | 180 | 7.25
CS(=O)(=O)N1CCN(C(=O)N(Cc2ccc(-c3nnc(C(F)(F)F)o3)cc2)c2ccccc2)CC1 [Compound 21363, 4-(Methylsulfonyl)-N-phenyl-N-(4-(5-(trifluoromethyl)-1,3,4-oxadiazol-2-yl)benzyl)piperazine-1-carboxamide] | 118 | 7.07
CC(=O)N1CCN(C(=O)N(Cc2ccc(-c3nnc(C(F)(F)F)o3)cc2)c2ccccc2)CC1 [Compound 21364, 4-Acetyl-N-phenyl-N-(4-(5-(trifluoromethyl)-1,3,4-oxadiazol-2-yl)benzyl)piperazine-1-carboxamide] | 108 | 7.03
CC(C)C(=O)N1CCN(C(=O)N(Cc2ccc(-c3nnc(C(F)(F)F)o3)cc2)c2ccccc2)CC1 [Compound 21365, 4-Isobutyryl-N-phenyl-N-(4-(5-(trifluoromethyl)-1,3,4-oxadiazol-2-yl)benzyl)piperazine-1-carboxamide] | 69 | 6.84
CCC(=O)N1CCN(C(=O)N(Cc2ccc(-c3nnc(C(F)(F)F)o3)cc2)c2ccccc2)CC1 [Compound 21366, N-phenyl-4-propionyl-N-(4-(5-(trifluoromethyl)-1,3,4-oxadiazol-2-yl)benzyl)piperazine-1-carboxamide] | 79 | 6.90
O=C(N1CCN(C(=O)C(F)(F)F)CC1)N(Cc1ccc(-c2nnc(C(F)(F)F)o2)cc1)c1ccccc1 [Compound 21367, N-phenyl-4-(2,2,2-trifluoroacetyl)-N-(4-(5-(trifluoromethyl)-1,3,4-oxadiazol-2-yl)benzyl)piperazine-1-carboxamide] | 43 | 6.63
O=C(NCc1ccccc1)N(Cc1ccc(-c2nnc(C(F)(F)F)o2)cc1)c1ccccc1 [Compound 21368, 3-Benzyl-1-phenyl-1-(4-(5-(trifluoromethyl)-1,3,4-oxadiazol-2-yl)benzyl)urea] | 24 | 6.38
O=C(N1CCS(=O)(=O)CC1)N(Cc1ccc(-c2nnc(C(F)(F)F)o2)cc1F)c1ccccc1 [Compound 21369, N-(2-fluoro-4-(5-(trifluoromethyl)-1,3,4-oxadiazol-2-yl)benzyl)-N-phenylthiomorpholine-4-carboxamide 1,1-dioxide] | 179 | 7.25
O=C(N1CCS(=O)(=O)CC1)N(Cc1ccc(-c2nnc(C(F)F)o2)cc1F)c1ccccc1 [Compound 21370, N-(4-(5-(difluoromethyl)-1,3,4-oxadiazol-2-yl)-2-fluorobenzyl)-N-phenylthiomorpholine-4-carboxamide 1,1-dioxide] | 400 | 7.60
O=C(N1CCS(=O)(=O)CC1)N(Cc1ccc(-c2nnc(C(F)(F)F)o2)cc1)C1CCCC1 [Compound 21371, N-cyclopentyl-N-(4-(5-(trifluoromethyl)-1,3,4-oxadiazol-2-yl)benzyl)thiomorpholine-4-carboxamide 1,1-dioxide] | 9 | 5.96
O=C(N1CCS(=O)(=O)CC1)N(Cc1ccc(-c2nnc(C(F)(F)F)o2)cn1)c1ccccc1 [Compound 21372, N-phenyl-N-((5-(5-(trifluoromethyl)-1,3,4-oxadiazol-2-yl)pyridin-2-yl)methyl)thiomorpholine-4-carboxamide 1,1-dioxide] | 132 | 7.12
O=C(N1CCS(=O)(=O)CC1)N(Cc1ccc(-c2nnc(C(F)F)o2)cn1)c1ccccc1 [Compound 21373, N-((5-(5-(difluoromethyl)-1,3,4-oxadiazol-2-yl)pyridin-2-yl)methyl)-N-phenylthiomorpholine-4-carboxamide 1,1-dioxide] | 500 | 7.70
O=C(N1CCS(=O)(=O)CC1)N(Cc1ccccc1)Cc1ccc(-c2nnc(C(F)(F)F)o2)cc1 [Compound 21374, N-benzyl-N-(4-(5-(trifluoromethyl)-1,3,4-oxadiazol-2-yl)benzyl)thiomorpholine-4-carboxamide 1,1-dioxide] | 10 | 6.00
CCN(Cc1ccc(-c2nnc(C(F)(F)F)o2)cc1)C(=O)N1CCS(=O)(=O)CC1 [Compound 21375, N-ethyl-N-(4-(5-(trifluoromethyl)-1,3,4-oxadiazol-2-yl)benzyl)thiomorpholine-4-carboxamide 1,1-dioxide] | 6 | 5.76
C[C@@H]1CN(C(=O)N(Cc2ccc(-c3nnc(C(F)(F)F)o3)cc2)c2ccccc2)C[C@H](C)N1Cc1ccccc1 [Compound 21376, (3S,5R)-4-Benzyl-3,5-dimethyl-N-phenyl-N-(4-(5-(trifluoromethyl)-1,3,4-oxadiazol-2-yl)benzyl)piperazine-1-carboxamide] | 22 | 6.35
